Where two headings read alike, the source gives them in different places.
Tests used:
RT16 (FR alpha) (CHO) = assay: proliferation assay, RT16 CHO cells expressing FR alpha only; type: cell-based, Chinese hamster; details: folate-/glycine-free RPMI1640 with 25 nM leucovorin, 96 h, read-out: IC50s (SE) RT16 (FR alpha) (CHO)
Method: (§1) Proliferation assays were performed with engineered Chinese hamster ovary (CHO) cell lines R2 (transporter-null), PC43-10 (expresses RFC only), RT16 (FRα only), and R2/PCFT4 (PCFT only) cultured in folate-/glycine-free RPMI1640 supplemented with 25 nM leucovorin. Additional results are shown for HCT116 (colon tumor cells (CTC)), IGROV1 (epithelial ovarian cancer (EOC) cells), H460 (non-small cell lung cancer (NSCLC) cells), MIAPaCa-2 (pancreatic cancer (PaC) cells), and HPAC (PaC).
(§2) For proliferation assays with the CHO cell lines, the cells were treated with drugs (0-1 µM) in a 96-well plate (2000 cells/well) in glycine-free, nucleoside-free folate-free RPMI supplemented with 10% dialyzed fetal bovine serum, 1% penicillin/streptomycin, 2 mM L-glutamine, and 25 nM leucovorin (final volume 200 µL) over a 96 h incubation period at 37° C. with 5% CO2. The drugs were dissolved in DMSO; an equivalent amount of DMSO was added to the control (no addition) samples. To quantify viable cells, the media was removed and plates were washed once with 100 µL Dulbecco’s Phosphate-Buffered Saline (PBS), after which 100 µL PBS and 20 µL Cell Titer-blue (Promega) were added. Relative cell numbers were proportional to the fluorescence measured with a fluorescence plate reader (590 nm emission, 560 nm excitation). Background fluorescence (cell-free wells treated with Cell Titer-blue) was subtracted and these corrected values were normalized to results for cells treated in an identical manner without drugs.

PC43-10 (RFC) (CHO) = assay: proliferation assay, PC43-10 CHO cells expressing RFC only; type: cell-based, Chinese hamster; details: folate-/glycine-free RPMI1640 with 25 nM leucovorin, 96 h, drug 0-1000 nM, read-out: IC50s (SE) PC43-10 (RFC) (CHO)
Method: as §1
Cell culture and proliferation/protection assays. The HCT116 cell lines including the serine hydroxymethyltransferase (SHMT) 1, SHMT2, and methylene THF dehydrogenase 2 (MTHFD2) knockout (KO) cells were previously described (47,53). The H460 cell line was obtained from the American Type Culture Collection (Manassas, VA), whereas the MIA PaCa-2 cells were provided by Dr. Yubin Ge (Karmanos Cancer Institute). Cell lines were verified by STR analysis by Genetica DNA Laboratories (Burlington, NC). MTXRIIOua^R2-4 (i.e. R2) Chinese hamster ovary (CHO) cells were generously provided by Dr. Wayne Flintoff (University of Western Ontario) (54). From this parental R2 cell line, human RFC and PCFT were individually transfected to generate the isogenic CHO cell lines designated PC43-10 (RFC) and R2/PCFT4 (PCFT) (55-57). Human tumor cell lines were cultured in folate-free RPMI supplemented with 10% dialyzed fetal bovine serum (Sigma-Aldrich), 1% penicillin/streptomycin solution, 2 mM L-glutamine, and 25 nM leucovorin in a humidified atmosphere at 37° C. in the presence of 5% CO2 and 95% air. The CHO cell lines were cultured in alpha-minimal essential medium (alpha-MEM) supplemented with 10% bovine calf serum, 1% penicillin/streptomycin solution, and 2 mM L-glutamine. Additionally, the transfected CHO cell lines (i.e. R2/PCFT4 and PC43-10) were maintained under continuous selection with 1 mg/ml of G418.
as §2, with “The drugs were dissolved in DMSO; an equivalent amount of DMSO was added to the control (no addition) samples.” left out

HCT116 cells = assay: targeted metabolomics with [2,3,3-2H]serine tracer, HCT116 cells; type: cell-based, human; details: 10 µM drug; for increase of total serine: HCT116 WT cells, relative to WT controls; for M+1 serine: WT HCT116 cells
Source text: Identification of the mitochondrial enzyme target for AGF291, AGF320, and AGF347 by targeted metabolomics. […] The cells were processed for LC-MS analyses of total serine, and of M+3, M+2, M+1, and M+0 (unlabeled) serine (where M+n represents species with n deuterium atoms). The results with the drug-treated cells were compared to those for untreated cells. For WT HCT116 cells, the results were compared to those for SHMT2 KO, MTHFD2 KO, and SHMT1 KO cells (KO of SHMT2, MTHFD2, and SHMT1, respectively (20)). For H460 cells, controls included non-targeted control (NTC) and SHMT2 shRNA knockdown (KD) cells.
Targeted Metabolomics. Targeted metabolomics were performed essentially as previously described (47, 53). Briefly, cells (H460, HCT116, MIA PaCa-2) (1 million cells /dish for vehicle-treated samples, 1.5 million cells/dish for drug-treated samples) were seeded in triplicate 60 mm dishes in 5 ml of folate-free RPMI (contains glycine and unlabeled serine) supplemented with 10% dialyzed fetal bovine serum, 1% penicillin/streptomycin, 2 mM L-glutamine, and 25 nM leucovorin. Cells were allowed to adhere for 24 h. […] After 16 h, the cells were washed with PBS (3×), the media was replaced with folate- and serine-free culture media (containing glycine) supplemented with 10% dialyzed fetal bovine serine, 25 nM leucovorin, and [2,3,3-^2H]serine (250 µM), including 10 µM drug or DMSO vehicle. The cells were incubated for 24 h. All incubations were at 37° C. with 5% CO2. The media was aspirated, and cells were washed (3×) rapidly (< 30 s) with 5 mL ice-cold PBS; metabolism was quickly quenched with methanol:water (80:20) at -80° C. Cells were allowed to rock on dry ice for 10 min to cover the entire dish with 80:20 methanol:water (at -80° C.), then harvested by scraping and pipetting into 1.5 mL Eppendorf tubes. The tubes were centrifuged (4° C., 14000 RPM, 10 min) to fully extract metabolites into the methanol:water supernatant. The protein pellet was used for normalization. The supernatants were collected and analyzed by reversed-phase ion-pairing chromatography coupled with negative-mode electrospray-ionization high-resolution mass spectrometry on a stand-alone Orbitrap (ThermoFisher Exactive). Raw metabolite values were adjusted to correct for normal ion distributions and normalized to total proteins from the post-extraction pellet by solubilizing with 0.5 N NaOH and using the Folin-phenol protein method (13). Values below the limit of detection were assigned a value of 100 for normalization. Results for drug-treated and SHMT2 KD cells were normalized to vehicle-treated WT ± formate or NTC ± formate samples, as appropriate.

Compound | IC50 (RT16 (FR alpha) (CHO); Cricetulus griseus, RT16) | IC50 (PC43-10 (RFC) (CHO); Cricetulus griseus, PC43-10) | increase of total serine (HCT116 cells) | M+1 serine (HCT116 cells) | IC50 (RT16 (FR alpha) (CHO)) | IC50 (PC43-10 (RFC) (CHO))
Nc1nc2ccn(CCCc3ccc(C(=O)N[C@@H](CCC(=O)O)C(=O)O)cc3)c2c(=O)[nH]1 [AGF291] | 117 nM | 454 nM | ~ 10 fold | nearly complete loss |  | 
Nc1nc2ccn(CCCCCc3ccc(C(=O)N[C@@H](CCC(=O)O)C(=O)O)s3)c2c(=O)[nH]1 [AGF320] |  |  | ~ 10 fold | nearly complete loss | 156 nM | > 1000 nM
(2-amino-4-oxo-3,4-dihydro-5H-pyrrolo[3,2-d]pyrimidin-5-yl)butyl)-2-fluorobenzoyl)-L-glutamic acid [AGF347] |  |  | ~ 10 fold | nearly complete loss | 9.4 nM | 224 nM
